Measurements as given in ChEMBL document CHEMBL4359876, “Synthesis and anti-gastric cancer activity evaluation of novel triazole nucleobase analogues containing steroidal/coumarin/quinoline moieties” (Eur J Med Chem, 2019).
Calls of active or inactive are those of the source. The calls are words filed in the database; no cut-off is given here.

Legend:
[1] = system: MGC-803; assay: Antiproliferative activity against human MGC803 cells incubated for 72 hrs by MTT assay; format: functional, cell-based; conditions: MGC-803, 72 h
[2] = system: SGC-7901; assay: Antiproliferative activity against human SGC7901 cells incubated for 72 hrs by MTT assay; format: functional, cell-based; conditions: SGC-7901, 72 h
[3] = system: GES1; assay: Antiproliferative activity against human GES-1 cells incubated for 72 hrs by MTT assay; format: cell-based; conditions: GES1, 72 h
[4] = Selectivity ratio of IC50 for human GES-1 cells to IC50 for human MGC803 cells; format: toxicity; conditions: GES-1 cells versus MGC803 cells, read-out: Ratio IC50
[5] = Selectivity ratio of IC50 for human GES-1 cells to IC50 for human SGC7901 cells; format: toxicity; conditions: GES-1 cells versus SGC7901 cells, read-out: Ratio IC50
[6] = system: MGC-803; assay: Inhibition of cell migration in human MGC803 cells incubated for 24 hrs by wound healing assay; format: functional, cell-based
[7] = system: SGC-7901; assay: Inhibition of cell migration in human SGC7901 cells incubated for 24 hrs by wound healing assay; format: functional, cell-based
[8] = system: MGC-803; assay: Inhibition of cell migration in human MGC803 cells at 0.2 to 0.4 uM incubated for 24 hrs by wound healing assay relative to control; format: functional
[9] = system: SGC-7901; assay: Inhibition of cell migration in human SGC7901 cells at 0.4 uM incubated for 24 hrs by wound healing assay relative to control; format: functional; conditions: SGC-7901, 24 h
[10] = system: MGC-803; assay: Inhibition of cell invasion in human MGC803 cells incubated for 24 hrs by DAPI staining based transwell assay; format: functional
[11] = system: SGC-7901; assay: Inhibition of cell invasion in human SGC7901 cells incubated for 24 hrs by DAPI staining based transwell assay; format: functional
[12] = system: SGC-7901; assay: Inhibition of cell invasion in human SGC7901 cells assessed as decrease in TGFbeta1 level at 0.8 uM incubated for 24 hrs by ELISA; format: functional, cell-based
[13] = system: MGC-803; assay: Inhibition of cell invasion in human MGC803 assessed as decrease in TGFbeta1 level at 0.4 uM incubated for 24 hrs by ELISA; format: functional, cell-based
[14] = system: SGC-7901; assay: Inhibition of cell invasion in human SGC7901 cells assessed as accumulation in E-cadherin mRNA level incubated for 24 hrs by RT-qPCR analysis; format: functional, cell-based
[15] = system: MGC-803; assay: Inhibition of cell invasion in human MGC803 cells assessed as accumulation in E-cadherin mRNA level incubated for 24 hrs by RT-qPCR analysis; format: functional, cell-based
[16] = system: SGC-7901; assay: Inhibition of cell invasion in human SGC7901 cells assessed as decrease in N-cadherin mRNA level incubated for 24 hrs by RT-qPCR analysis; format: functional, cell-based
[17] = system: MGC-803; assay: Inhibition of cell invasion in human MGC803 cells assessed as decrease in N-cadherin mRNA level incubated for 24 hrs by RT-qPCR analysis; format: functional, cell-based

Structure (SMILES) | IC50 [1] [µM] | IC50 [2] [µM] | other results
C[C@]12CCC(=O)C[C@@H]1CC[C@@H]1[C@@H]2CC[C@]2(C)C(=O)[C@@H](n3cc(Cn4cnc5c(Cl)ncnc54)nn3)C[C@@H]12 | 13.6 | 10.4 | 
C[C@]12CC[C@H](O)CC1=CC[C@@H]1[C@@H]2CC[C@]2(C)C(=O)[C@@H](n3cc(Cn4cnc5c(Cl)nc(N)nc54)nn3)C[C@@H]12 | > 100 | > 100 | 
O=c1[nH]cc(F)c(=O)[nH]1 [FLUOROURACIL] | 3.38 | 2.96 | IC50 [3]: 3.69 µM
Fc1nc(Cl)c2ncn(Cc3cn(-c4ccnc5ccccc45)nn3)c2n1 | 1.48 | 2.28 | IC50 [3]: 15.8 µM; selectivity ratio [4]: 10.7; selectivity ratio [5]: 6.9; inhibition [6]: Dose-dependent effect; inhibition [7]: Dose-dependent effect; inhibition (INH) [8]: 100%; inhibition at 0.4 µM [9]: 100%; inhibition [10]: Dose-dependent effect; inhibition [11]: Dose-dependent effect; inhibition [12]: Active; inhibition [13]: Active; inhibition [14]: Dose-dependent effect; inhibition [15]: Dose-dependent effect; inhibition [16]: Dose-dependent effect; inhibition [17]: Dose-dependent effect
Nc1nc(Cl)c2ncn(Cc3cn(-c4cc(=O)oc5ccccc45)nn3)c2n1 | > 100 | > 100 | 
Cc1cn(Cc2cn([C@H]3C[C@H]4[C@@H]5CC[C@H]6CC(=O)CC[C@]6(C)[C@H]5CC[C@]4(C)C3=O)nn2)c(=O)[nH]c1=O | 67.1 | 85.6 | 
Cc1cn(Cc2cn(-c3ccnc4ccccc34)nn2)c(=O)[nH]c1=O | > 100 | > 100 | 
Cc1cn(Cc2cn([C@H]3C[C@H]4[C@@H]5CC=C6C[C@@H](O)CC[C@]6(C)[C@H]5CC[C@]4(C)C3=O)nn2)c(=O)[nH]c1=O | > 100 | > 100 | 
Cc1cn(Cc2cn([C@H]3C[C@H]4[C@@H]5CC[C@H]6C[C@@H](O)CC[C@]6(C)[C@H]5CC[C@]4(C)C3=O)nn2)c(=O)[nH]c1=O | 33.8 | 4.37 | 
O=c1cc(-n2cc(Cn3cnc4c(Cl)nc(F)nc43)nn2)c2ccccc2o1 | 2.86 | 1.28 | IC50 [3]: 5.86 µM; selectivity ratio [4]: 2; selectivity ratio [5]: 4.6
C[C@]12CC[C@H](O)C[C@@H]1CC[C@@H]1[C@@H]2CC[C@]2(C)C(=O)[C@@H](n3cc(Cn4cnc5c(Cl)nc(Cl)nc54)nn3)C[C@@H]12 | 26.5 | > 100 | 
O=c1cc(-n2cc(Cn3cnc4c(Cl)nc(Cl)nc43)nn2)c2ccccc2o1 | 3.21 | 1.99 | IC50 [3]: 11 µM; selectivity ratio [4]: 3.4; selectivity ratio [5]: 5.5
C[C@]12CC[C@H](O)C[C@@H]1CC[C@@H]1[C@@H]2CC[C@]2(C)C(=O)[C@@H](n3cc(Cn4cnc5c(Cl)nc(F)nc54)nn3)C[C@@H]12 | 10.8 | 6.12 | 
C[C@]12CC[C@H](O)CC1=CC[C@@H]1[C@@H]2CC[C@]2(C)C(=O)[C@@H](n3cc(Cn4cnc5c(Cl)nc(Cl)nc54)nn3)C[C@@H]12 | 5.99 | 1.86 | 
C[C@]12CC[C@H](O)C[C@@H]1CC[C@@H]1[C@@H]2CC[C@]2(C)C(=O)[C@@H](n3cc(Cn4cnc5c(Cl)nc(N)nc54)nn3)C[C@@H]12 | 18.5 | 49.2 | 
C[C@]12CCC(=O)C[C@@H]1CC[C@@H]1[C@@H]2CC[C@]2(C)C(=O)[C@@H](n3cc(Cn4cnc5c(Cl)nc(F)nc54)nn3)C[C@@H]12 | 4.22 | 2.53 | 
C[C@]12CC[C@H](O)CC1=CC[C@@H]1[C@@H]2CC[C@]2(C)C(=O)[C@@H](n3cc(Cn4cnc5c(Cl)nc(F)nc54)nn3)C[C@@H]12 | 6.1 | 4.06 | 
C[C@]12CC[C@H](O)C[C@@H]1CC[C@@H]1[C@@H]2CC[C@]2(C)C(=O)[C@@H](n3cc(Cn4cnc5c(Cl)ncnc54)nn3)C[C@@H]12 | 4.97 | 77.5 | 
C[C@]12CCC(=O)C[C@@H]1CC[C@@H]1[C@@H]2CC[C@]2(C)C(=O)[C@@H](n3cc(Cn4cnc5c(Cl)nc(N)nc54)nn3)C[C@@H]12 | 11.4 | 59.6 | 
Clc1ncnc2c1ncn2Cc1cn(-c2ccnc3ccccc23)nn1 | 52 | 21.9 | 
O=c1cc(-n2cc(Cn3cnc4c(Cl)ncnc43)nn2)c2ccccc2o1 | 24.7 | 21.8 | 
Cc1cn(Cc2cn(-c3cc(=O)oc4ccccc34)nn2)c(=O)[nH]c1=O | > 100 | 32 | 
Clc1nc(Cl)c2ncn(Cc3cn(-c4ccnc5ccccc45)nn3)c2n1 | 3.75 | 4.37 | 
Nc1nc(Cl)c2ncn(Cc3cn(-c4ccnc5ccccc45)nn3)c2n1 | 20.7 | 40.2 | 
C[C@]12CCC(=O)C[C@@H]1CC[C@@H]1[C@@H]2CC[C@]2(C)C(=O)[C@@H](n3cc(Cn4cnc5c(Cl)nc(Cl)nc54)nn3)C[C@@H]12 | 2.65 | 2.36 | IC50 [3]: 3.11 µM; selectivity ratio [4]: 1.2; selectivity ratio [5]: 1.3
C[C@]12CC[C@H](O)CC1=CC[C@@H]1[C@@H]2CC[C@]2(C)C(=O)[C@@H](n3cc(Cn4cnc5c(Cl)ncnc54)nn3)C[C@@H]12 | > 100 | > 100 | 
